Data as given in patent US20240115527A1, “CXCR1/CXCR2 INHIBITORS FOR USE IN TREATING MYELOFIBROSIS” (Icahn School of Medicine at Mount Sinai, priority 2020, published 2024).

Legend:
Type in all cases: cell-based, human
[1] = tested on: MF CD34+ cells; assay: Clonal assays of MF CD34+ cells; JAK2V617F allele status of picked hematopoietic colonies
Experimental: Individual hematopoietic colonies were randomly picked from clonal assays of CD34^+ cells from 6 MF cases and the JAK2V617F allele status was determined.
IL-8 alone increased the absolute numbers of JAK2V617F+ colonies, and the addition of Ladarixin reduced the numbers of JAK2V617F positive colonies stimulated by IL-8 (Tables 1-3).

[2] = tested on: MF CD34+ cells; assay: Colony forming assay (CFU-GM) of cultured MF CD34+ cells with IL-8
From the text: FIGS. 5A, 5B. 5C, 5D, and 5E illustrate that a CXCR1/CXCR2 inhibitor reverses effects of IL-8 on MF CD34^+ cell colony formation. […] CFU-GM=colony-forming unit-granulocyte-macrophage. FIGS. 5B and 5C illustrate that IL-8 increased CFU-GM colony formation by MF CD34^+ cells in a dose dependent fashion and that the effects of IL-8 were inhibited by treatment with Ladx. FIG. 5B. Normal cells. FIG. 5C. MF cells. […] Con=control. IL-8 concentrations increase from left to right. […] P values were as follows: w/o Ladx: Con vs IL-8—10 ng: 0.159332; Con vs IL-8—20 ng: 0.011976; Con vs IL-8—50 ng: 0.00262; Con vs IL-8—100 ng: 0.00042; w/ 10 μM Ladx: Con vs Ladx: 0.315782; IL-8—10 ng vs plus Ladx: 0.295851; IL-8—20 ng vs plus Ladx: 0.077726; IL-8—50 ng vs plus Ladx: 0.031355; IL-8—100 ng vs plus Ladx: 0.081595.

[3] = tested on: normal donor CD34+ cells; assay: Proliferation and lineage differentiation of normal donor cells cultured with IL-8, flow cytometry; details: ladarixin added to IL-8 culture, FIG. 4A
[4] = tested on: normal CD34+ cells; assay: Hematopoietic colony formation by normal CD34+ cells with IL-8; details: addition of ladarixin, FIG. 5B
[5] = MF4 CD34+ cells, ladarixin 10 μM + IL-8 20 ng
[6] = MF4 CD34+ cells, ladarixin 10 μM + IL-8 50 ng
[7] = MF4 CD34+ cells, ladarixin 10 μM + IL-8 100 ng
[8] = MF4 CD34+ cells, ladarixin 10 μM, no IL-8
[9] = MF4 CD34+ cells, ladarixin 20 μM + IL-8 20 ng
[10] = MF4 CD34+ cells, ladarixin 20 μM, no IL-8
[11] = MF5 CD34+ cells, ladarixin 10 μM + IL-8 10 ng
[12] = MF5 CD34+ cells, ladarixin 10 μM + IL-8 20 ng
[13] = MF5 CD34+ cells, ladarixin 10 μM + IL-8 50 ng
[14] = MF5 CD34+ cells, ladarixin 10 μM + IL-8 100 ng
[15] = MF5 CD34+ cells, ladarixin 10 μM, no IL-8
[16] = MF5 CD34+ cells, ladarixin 20 μM + IL-8 20 ng
[17] = MF5 CD34+ cells, ladarixin 20 μM, no IL-8
[18] = MF6 CD34+ cells, ladarixin 10 μM + IL-8 10 ng
[19] = MF6 CD34+ cells, ladarixin 10 μM + IL-8 20 ng
[20] = MF6 CD34+ cells, ladarixin 10 μM + IL-8 50 ng
[21] = MF6 CD34+ cells, ladarixin 10 μM + IL-8 100 ng
[22] = MF6 CD34+ cells, ladarixin 10 μM, no IL-8
[23] = MF6 CD34+ cells, ladarixin 20 μM + IL-8 20 ng
[24] = MF6 CD34+ cells, ladarixin 20 μM, no IL-8

Structure (SMILES): C[C@@H](C(=O)NS(C)(=O)=O)c1ccc(OS(=O)(=O)C(F)(F)F)cc1 [Ladarixin, R(-)-2-[(4′-trifluoromethanesulfonyloxy)phenyl]-N-methanesulfonyl propionamide]
- number of colonies, Wild (JAK2 wild type) ([1]; MF4 CD34+ cells, ladarixin 10 μM + IL-8 10 ng): 0
- number of colonies, Heter (JAK2V617F heterozygous) [1, 5]: 113
- number of colonies, Homo (JAK2V617F homozygous) [1, 5]: 0
- number of colonies, Wild (JAK2 wild type) [1, 5]: 0
- number of colonies, Heter (JAK2V617F heterozygous) [1, 6]: 137
- number of colonies, Homo (JAK2V617F homozygous) [1, 6]: 0
- number of colonies, Wild (JAK2 wild type) [1, 6]: 0
- number of colonies, Heter (JAK2V617F heterozygous) [1, 7]: 112
- number of colonies, Homo (JAK2V617F homozygous) [1, 7]: 7
- number of colonies, Wild (JAK2 wild type) [1, 7]: 0
- number of colonies, Heter (JAK2V617F heterozygous) [1, 8]: 163
- number of colonies, Homo (JAK2V617F homozygous) [1, 8]: 23
- number of colonies, Wild (JAK2 wild type) [1, 8]: 0
- number of colonies, Heter (JAK2V617F heterozygous) [1, 9]: 134
- number of colonies, Homo (JAK2V617F homozygous) [1, 9]: 0
- number of colonies, Wild (JAK2 wild type) [1, 9]: 0
- number of colonies, Heter (JAK2V617F heterozygous) [1, 10]: 142
- number of colonies, Homo (JAK2V617F homozygous) [1, 10]: 0
- number of colonies, Wild (JAK2 wild type) [1, 10]: 0
- number of colonies, Heter (JAK2V617F heterozygous) [1, 11]: 0
- number of colonies, Homo (JAK2V617F homozygous) [1, 11]: 0
- number of colonies, Wild (JAK2 wild type) [1, 11]: 148
- number of colonies, Heter (JAK2V617F heterozygous) [1, 12]: 0
- number of colonies, Homo (JAK2V617F homozygous) [1, 12]: 0
- number of colonies, Wild (JAK2 wild type) [1, 12]: 138
- number of colonies, Heter (JAK2V617F heterozygous) [1, 13]: 0
- number of colonies, Homo (JAK2V617F homozygous) [1, 13]: 0
- number of colonies, Wild (JAK2 wild type) [1, 13]: 151
- number of colonies, Heter (JAK2V617F heterozygous) [1, 14]: 0
- number of colonies, Homo (JAK2V617F homozygous) [1, 14]: 0
- number of colonies, Wild (JAK2 wild type) [1, 14]: 144
- number of colonies, Heter (JAK2V617F heterozygous) [1, 15]: 0
- number of colonies, Homo (JAK2V617F homozygous) [1, 15]: 0
- number of colonies, Wild (JAK2 wild type) [1, 15]: 107
- number of colonies, Heter (JAK2V617F heterozygous) [1, 16]: 0
- number of colonies, Homo (JAK2V617F homozygous) [1, 16]: 0
- number of colonies, Wild (JAK2 wild type) [1, 16]: 131
- number of colonies, Heter (JAK2V617F heterozygous) [1, 17]: 0
- number of colonies, Homo (JAK2V617F homozygous) [1, 17]: 0
- number of colonies, Wild (JAK2 wild type) [1, 17]: 141
- number of colonies, Heter (JAK2V617F heterozygous) [1, 18]: 0
- number of colonies, Homo (JAK2V617F homozygous) [1, 18]: 0
- number of colonies, Wild (JAK2 wild type) [1, 18]: 119
- number of colonies, Heter (JAK2V617F heterozygous) [1, 19]: 0
- number of colonies, Homo (JAK2V617F homozygous) [1, 19]: 0
- number of colonies, Wild (JAK2 wild type) [1, 19]: 121
- number of colonies, Heter (JAK2V617F heterozygous) [1, 20]: 0
- number of colonies, Homo (JAK2V617F homozygous) [1, 20]: 0
- number of colonies, Wild (JAK2 wild type) [1, 20]: 122
- number of colonies, Heter (JAK2V617F heterozygous) [1, 21]: 0
- number of colonies, Homo (JAK2V617F homozygous) [1, 21]: 0
- number of colonies, Wild (JAK2 wild type) [1, 21]: 119
- number of colonies, Heter (JAK2V617F heterozygous) [1, 22]: 0
- number of colonies, Homo (JAK2V617F homozygous) [1, 22]: 0
- number of colonies, Wild (JAK2 wild type) [1, 22]: 119
- number of colonies, Heter (JAK2V617F heterozygous) [1, 23]: 0
- number of colonies, Homo (JAK2V617F homozygous) [1, 23]: 0
- number of colonies, Wild (JAK2 wild type) [1, 23]: 106
- number of colonies, Heter (JAK2V617F heterozygous) [1, 24]: 0
- number of colonies, Homo (JAK2V617F homozygous) [1, 24]: 0
- number of colonies, Wild (JAK2 wild type) [1, 24]: 105
- numbers of JAK2V617F positive colonies stimulated by IL-8 ([1]; addition of Ladarixin, 6 MF cases): reduced
- effect on IL-8 increased CFU-GM colony formation by MF samples with the highest expression of CXCR1/CXCR2 ([2]; 10 μM Ladx, FIG. 5E): corrected
- effect on IL-8 increased numbers of MF CFU-GM colonies ([2]; addition of ladarixin, FIG. 5C): blunted
- effect on IL-8 induced change of normal CD34+, CD41+ and CD33+ cell populations [3]: reversed the effects of IL-8
- hematopoietic colony formation by normal CD34+ cells [4]: did not affect
